We go through twelve molecules from ChEMBL document CHEMBL3808354, “Synthesis and biological evaluation of oxindole linked indolyl-pyrimidine derivatives as potential cytotoxic agents” (Bioorg Med Chem Lett, 2016).

For orientation: IC50 means the midpoint of a concentration-inhibition curve.

Data set [1] in a line: Cytotoxicity against human U87MG cells assessed as decrease in cell viability after 48 hrs by MTT assay. Format: functional, cell-based, U-87MG ATCC. To be noted: U-87 MG. A general note: Tetrazolium assays rely on reduction of a dye to a coloured formazan, in cell work by metabolically active cells.
The test system of the next data set is MCF7. Briefly: Cytotoxicity against human MCF7 cells assessed as decrease in cell viability after 48 hrs by MTT assay. Format: functional, cell-based. To be noted: MCF7, 48 h.
Data set [2] is described as follows: Cytotoxicity against human PA1 cells assessed as decrease in cell viability after 48 hrs by MTT assay. Format: functional, cell-based. To be noted: PA-1, 48 h.
Data set [3] can be described thus: Cytotoxicity against human RWPE1 cells assessed as decrease in cell viability after 48 hrs by MTT assay. Format: cell-based. To be noted: RWPE-1, 48 h.
In another data set the test system is LNCaP. Briefly: Cytotoxicity against human LNCAP cells assessed as decrease in cell viability after 48 hrs by MTT assay. Format: functional, cell-based.
Data set [4] is described as follows: Selectivity ratio of IC50 for human RWPE1 cells to IC50 for human LNCAP cells. Format: ADME, cell-based. Particulars: RWPE1 cells and LNCaP cells, read-out: Ratio IC50.
In data set [5] the test system is PA-1. Briefly: Induction of apoptosis in human PA1 cells assessed as necrotic cells at 1 uM after 24 hrs by annexin V-FITC/propidium iodide staining based flow cytometry (reference value: 0.10%). Format: functional. (In general: In flow cytometry, cells or beads pass a laser one at a time.)
The test system of data set [6] is PA-1. Briefly: Induction of apoptosis in human PA1 cells assessed as viable cells at 2.5 uM after 24 hrs by annexin V-FITC/propidium iodide staining based flow cytometry (reference value: 97.01%). Format: functional. To be noted: PA-1, 24 h, read-out: Activity.
The nature of data set [7]: Cell cycle arrest in human PA1 cells assessed as accumulation at G0/G1 phase at 1 uM after 24 hrs by propidium iodide staining based flow cytometry (reference value: 73.23%). Format: functional. Particulars: PA-1.
Data set [8] deals with PA-1. Briefly: Induction of apoptosis in human PA1 cells after 24 hrs by annexin V-FITC/propidium iodide staining based flow cytometry. Format: functional, cell-based.
Data set [9] has as its system PA-1. Briefly: Induction of apoptosis in human PA1 cells assessed as necrotic cells at 2.5 uM after 24 hrs by annexin V-FITC/propidium iodide staining based flow cytometry (reference value: 0.10%). Format: functional.
For data set [10], the system named is PA-1. Briefly: Induction of morphological changes in human PA1 cells assessed as cell shrinking at 1 to 2.5 uM after 24 hrs by inverted phase contrast microscopy. Format: functional, cell-based.
The test system of data set [11] is PA-1. Briefly: Induction of cell death in human PA1 cells assessed as apoptotic body formation at 1 to 2.5 uM after 24 hrs by acridine orange/ethidium bromide staining based fluorescence microscopy. Format: functional.
Data set [12] has as its system PA-1. Briefly: Induction of apoptosis in human PA1 cells assessed as late apoptotic cells at 2.5 uM after 24 hrs by annexin V-FITC/propidium iodide staining based flow cytometry (reference value: 1.24%). Format: functional.
Data set [13] relates to PA-1. Briefly: Induction of apoptosis in human PA1 cells assessed as early apoptotic cells at 1 uM after 24 hrs by annexin V-FITC/propidium iodide staining based flow cytometry (reference value: 1.65%). Format: functional.
For data set [14], the system named is PA-1. Briefly: Induction of apoptosis in human PA1 cells assessed as late apoptotic cells at 1 uM after 24 hrs by annexin V-FITC/propidium iodide staining based flow cytometry (reference value: 1.24%). Format: functional.
A short description of data set [15]: Cell cycle arrest in human PA1 cells assessed as accumulation at G2/M phase at 2.5 uM after 24 hrs by propidium iodide staining based flow cytometry (reference value: 15.72%). Particulars: PA-1. Format: functional.
Data set [16] concerns PA-1. Briefly: Induction of morphological changes in human PA1 cells assessed as cell wall deformation at 1 to 2.5 uM after 24 hrs by inverted phase contrast microscopy. Format: functional, cell-based.
Data set [17] is described as follows: Cell cycle arrest in human PA1 cells assessed as accumulation at S phase at 2.5 uM after 24 hrs by propidium iodide staining based flow cytometry (reference value: 10.25%). Format: functional. To be noted: PA-1.
The test system of data set [18] is PA-1. Briefly: Induction of apoptosis in human PA1 cells assessed as early apoptotic cells at 2.5 uM after 24 hrs by annexin V-FITC/propidium iodide staining based flow cytometry (reference value: 1.65%). Format: functional.
The nature of data set [19]: Cell cycle arrest in human PA1 cells assessed as accumulation at G0/G1 phase at 2.5 uM after 24 hrs by propidium iodide staining based flow cytometry (reference value: 73.23%). Format: functional. Particulars: PA-1.
A short description of data set [20]: Cell cycle arrest in human PA1 cells assessed as accumulation at G2/M phase at 1 uM after 24 hrs by propidium iodide staining based flow cytometry (reference value: 15.72%). Format: functional. Particulars: PA-1.
For data set [21], the system named is PA-1. Briefly: Antiproliferative activity against human PA1 cells assessed as reduction in viable cells at 1 to 2.5 uM after 24 hrs by inverted phase contrast microscopy. Format: functional, cell-based.
Data set [22] deals with PA-1. Briefly: Induction of cell death in human PA1 cells assessed as cell shrinking at 1 to 2.5 uM after 24 hrs by acridine orange/ethidium bromide staining based fluorescence microscopy. Format: functional.
Data set [23] deals with PA-1. Briefly: Induction of cell death in human PA1 cells assessed as membrane blebbing at 1 to 2.5 uM after 24 hrs by acridine orange/ethidium bromide staining based fluorescence microscopy. Format: functional.
Data set [24] has as its system PA-1. Briefly: Induction of apoptosis in human PA1 cells assessed as viable cells at 1 uM after 24 hrs by annexin V-FITC/propidium iodide staining based flow cytometry (reference value: 97.01%). Format: functional. Particulars: PA-1, 24 h, read-out: Activity.
Data set [25] deals with PA-1. Briefly: Induction of cell death in human PA1 cells assessed as chromatin condensation at 1 to 2.5 uM after 24 hrs by acridine orange/ethidium bromide staining based fluorescence microscopy. Format: functional.
Data set [26] is described as follows: Cell cycle arrest in human PA1 cells assessed as accumulation at S phase at 1 uM after 24 hrs by propidium iodide staining based flow cytometry (reference value: 10.25%). Format: functional. To be noted: PA-1.
Data set [27] can be described thus: Cell cycle arrest in human PA1 cells assessed as accumulation at G2/M phase after 24 hrs by propidium iodide staining based flow cytometry. Format: functional. Particulars: PA-1.

SMILES strings stand for the structures. Calls of active or inactive are those of the source. The calls are words filed in the database; no cut-off is given here. Some results are limits rather than exact numbers.

Take `Cn1cc(/C=C2/C(=O)Nc3ccccc32)c2cc(Nc3nccc(-c4cccnc4)n3)ccc21`: the 50% inhibitory concentration (IC50) in data set [1] is 14.8 µM; in the data set on MCF7, 46.6 µM; in data set [2], 18.1 µM; in data set [3], 69.8 µM; in the data set on LNCaP, 14.2 µM.
Turning to `CCN(CC)CCNC(=O)c1c(C)[nH]c(/C=C2\C(=O)Nc3ccc(F)cc32)c1C` [SUNITINIB], the concentration for half-maximal inhibition (IC50) was 59.8 µM in data set [1]; 23.8 µM in the data set with MCF7; 7.97 µM in data set [2]; 23 µM in data set [3]; 12.6 µM in the data set with LNCaP.
In the case of `Cn1cc(/C=C2/C(=O)Nc3ccccc32)c2cc(Nc3nccc(-c4ccc(C(F)(F)F)cc4)n3)ccc21`, the 50% inhibitory concentration (IC50) was 26 µM in data set [1], 65.2 µM with MCF7, 63.9 µM in data set [2] and greater than 100 µM in the data set with LNCaP.
Consider `Cn1cc(/C=C2/C(=O)Nc3ccccc32)c2cc(Nc3nccc(-c4ccc(O)cc4)n3)ccc21`, for which the IC50 is 13.2 µM in data set [1]; 39.6 µM in the data set with MCF7; 9.27 µM in [2]; 58.4 µM in data set [3]; 10.8 µM in the data set on LNCaP.
Regarding `O=c1[nH]cc(F)c(=O)[nH]1` [FLUOROURACIL], the half-inhibitory concentration (IC50) in [1] was determined as 15.5 µM; in the data set with MCF7, 32.3 µM; in [2], 8.51 µM; in the data set on LNCaP, 47.2 µM.
As for `Cn1cc(/C=C2/C(=O)Nc3ccccc32)c2cc(Nc3nccc(-c4ccc(F)cc4)n3)ccc21`, the IC50 in data set [1] came to 16.4 µM; in the data set with MCF7 it was 48.1 µM; in data set [2], 31.8 µM; in data set [3] it was 168 µM; with LNCaP, 16.3 µM. In data set [4], the selectivity ratio was 10.3.
Regarding `Cn1cc(/C=C2/C(=O)Nc3ccccc32)c2cc(Nc3nccc(-c4cccs4)n3)ccc21`, the IC50 stood at 7.18 µM in data set [1]; 30.8 µM with MCF7; 7.94 µM in [2]; 64.9 µM in data set [3]; 10.3 µM in the data set on LNCaP.
Take `Cn1cc(/C=C2/C(=O)Nc3ccccc32)c2cc(Nc3nccc(-c4ccc(Cl)cc4Cl)n3)ccc21`: the IC50 in data set [1] is 36.8 µM; in the data set on MCF7, greater than 100 µM; in [2], greater than 100 µM; with LNCaP, greater than 100 µM.
`Cn1cc(/C=C2/C(=O)Nc3ccccc32)c2cc(Nc3nccc(-c4ccc(Cl)cc4)n3)ccc21`: the Activity in the data set on PA-1 [5] is 0.4%; in data set [7], 67.8%; in the data set on PA-1 [8] it was “Dose-dependent effect”; in the data set with PA-1 [9], 3.03%; in the data set on PA-1 [12], 20.01%; in the data set with PA-1 [13], 16.68%. The Activity in the data set with PA-1 [14] turned out to be 7.42%; in data set [15], 31.1%; in data set [17], 10.8%; in the data set on PA-1 [18] it was 25.18%; in [19], 57.1%; in data set [20], 17.6%. In addition, the Activity in [26] was 13.6%; in data set [27], “Dose-dependent effect”. Also, the viability at 2.5 µM in the data set with PA-1 [6] was found to be 51.8%. Further, the IC50 worked out at 5.82 µM in data set [1]; 23.5 µM in the data set with MCF7; 2.43 µM in [2]; 41.1 µM in [3]; 6.59 µM in the data set on LNCaP. Besides, the outcome in the data set with PA-1 [10], with PA-1 [11], in the data set on PA-1 [16], in the data set with PA-1 [21], with PA-1 [22] and in the data set with PA-1 [23] was Active. Further, the result with PA-1 [25] was Active. Further, in the data set on PA-1 [24], the viability at 1 µM amounted to 75.5%.
For the molecule `Cn1cc(/C=C2/C(=O)Nc3ccccc32)c2cc(Nc3nccc(-c4ccccc4)n3)ccc21`, the IC50 in [1] amounted to 14.1 µM; in the data set with MCF7, 42.9 µM; in data set [2], 17.3 µM; in data set [3], 95.6 µM; with LNCaP, 13.4 µM.
On to `COc1ccc(-c2ccnc(Nc3ccc4c(c3)c(/C=C3/C(=O)Nc5ccccc53)cn4C)n2)cc1`, for which the IC50 (in data set [1]; in the data set on MCF7; in data set [2]; in the data set with LNCaP) was greater than 100 µM throughout.
On to `Cc1ccc(-c2ccnc(Nc3ccc4c(c3)c(/C=C3/C(=O)Nc5ccccc53)cn4C)n2)cc1`, for which the IC50 (in data set [1]; in the data set with MCF7; in data set [2]; with LNCaP) was greater than 100 µM each time.
